In patent US11358969B2, “Indole AHR inhibitors and uses thereof” (Ikena Oncology, Inc., priority 2017, dated 2022):

Biological target: T1, AHR (UniProt P35869)
T1 construct: IC50
T1 sequence (P35869 1-848): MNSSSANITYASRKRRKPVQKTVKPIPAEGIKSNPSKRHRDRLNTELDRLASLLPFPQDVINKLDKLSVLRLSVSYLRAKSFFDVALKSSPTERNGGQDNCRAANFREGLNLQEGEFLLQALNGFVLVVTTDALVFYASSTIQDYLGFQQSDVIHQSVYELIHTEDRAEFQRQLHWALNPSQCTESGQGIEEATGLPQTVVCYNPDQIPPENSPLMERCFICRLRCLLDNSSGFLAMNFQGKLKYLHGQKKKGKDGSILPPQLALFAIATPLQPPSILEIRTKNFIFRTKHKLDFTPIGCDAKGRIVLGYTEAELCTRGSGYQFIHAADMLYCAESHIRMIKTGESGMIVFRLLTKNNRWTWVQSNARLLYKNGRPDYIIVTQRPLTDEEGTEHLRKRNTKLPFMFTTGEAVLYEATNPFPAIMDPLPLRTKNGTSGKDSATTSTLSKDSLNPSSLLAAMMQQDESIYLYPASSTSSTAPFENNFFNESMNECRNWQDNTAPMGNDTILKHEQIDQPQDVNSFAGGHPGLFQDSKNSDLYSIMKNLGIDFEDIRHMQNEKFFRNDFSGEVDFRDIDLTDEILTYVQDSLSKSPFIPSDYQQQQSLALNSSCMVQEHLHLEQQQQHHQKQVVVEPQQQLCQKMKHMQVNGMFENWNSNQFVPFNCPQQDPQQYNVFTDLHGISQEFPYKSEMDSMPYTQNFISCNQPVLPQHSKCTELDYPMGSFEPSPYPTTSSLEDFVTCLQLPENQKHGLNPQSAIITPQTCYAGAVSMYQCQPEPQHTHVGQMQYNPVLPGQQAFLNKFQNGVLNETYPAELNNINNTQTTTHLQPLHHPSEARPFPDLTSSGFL
Test: DRE-Luciferase Reporter Assay (Alternate Method) (Example 1B)
Type: cell-based, murine or human
Details: cell line and AHR activating ligand not specified

Row | SMILES | IC50 [nM]
1 | CC(C)c1cnn2c(N[C@H]3CCc4c([nH]c5ccccc45)C3)nc(-c3cncc(F)c3)nc12 [I-146a] | > 1500
2 | CC(C)c1cnn2c(N[C@@H]3CCc4c([nH]c5ccccc45)C3)nc(-c3cncc(F)c3)nc12 [I-146b] | > 1500
3 | Fc1cncc(-c2nccc(NCCc3c[nH]c4ccccc34)n2)c1 [I-148] | > 1500
4 | Cc1cnn2c(NCCc3c[nH]c4c(O)cc(O)cc34)cc(-c3cncc(F)c3)nc12 [I-149] | > 1500
5 | Cc1cnn2c(NC[C@H](O)c3c[nH]c4ccccc34)cc(-c3cncc(F)c3)nc12 [I-150a, (1R)-2-[[5-(5-Fluoro-3-pyridyl)-3-methyl-pyrazolo[1,5-a]pyrimidin-7-yl]amino]-1-(1H-indol-3-yl)ethanol] | < 500
6 | Cc1cnn2c(NC[C@@H](O)c3c[nH]c4ccccc34)cc(-c3cncc(F)c3)nc12 [I-150b, (1S)-2-[[5-(5-Fluoro-3-pyridyl)-3-methyl-pyrazolo[1,5-a]pyrimidin-7-yl]amino]-1-(1H-indol-3-yl)ethanol] | 1000 to 1500
7 | CC(C)Oc1cc(-c2ccccc2)nc(NCCc2c[nH]c3ccccc23)n1 [I-155, N-(2-(1H-Indol-3-yl)ethyl)-4-isopropoxy-6-phenylpyrimidin-2-amine] | 500 to 1000
8 | Cc1c(-c2cncc(F)c2)nc2c(C)cnn2c1N[C@@H]1CCc2[nH]c3ccccc3c2C1 [I-157] | > 1500
9 | O=C(O)c1cnn2c(NC[C@H](O)c3c[nH]c4ccccc34)cc(-c3cncc(F)c3)nc12 [I-158a] | > 1500
10 | O=C(O)c1cnn2c(NC[C@@H](O)c3c[nH]c4ccccc34)cc(-c3cncc(F)c3)nc12 [I-158b] | > 1500
11 | Cc1cnn2c(NC[C@@H](C)c3c[nH]c4ccccc34)cc(-c3cncc(F)c3)nc12 [I-160a, 5-(5-Fluoro-3-pyridyl)-N-[(2S)-2-(1H-indol-3-yl)propyl]-3-methyl-pyrazolo[1,5-a]pyrimidin-7-amine] | > 1500
12 | Cc1cnn2c(NC[C@H](C)c3c[nH]c4ccccc34)cc(-c3cncc(F)c3)nc12 [I-160b, 5-(5-Fluoro-3-pyridyl)-N-[(2R)-2-(1H-indol-3-yl)propyl]-3-methyl-pyrazolo[1,5-a]pyrimidin-7-amine] | > 1500
13 | Cc1cnn2c(NCC(=O)c3c[nH]c4ccccc34)cc(-c3cncc(F)c3)nc12 [I-163, 2-[[5-(5-Fluoro-3-pyridyl)-3-methyl-pyrazolo[1,5-a]pyrimidin-7-yl]amino]-1-(1H-indol-3-yl)ethanone] | < 500
14 | Cc1cnn2c(NCC3(c4c[nH]c5ccccc45)CC3)cc(-c3cncc(F)c3)nc12 [I-167] | > 1500
15 | O=C(O)c1cnn2c(NCCc3c[nH]c4ccc(O)cc34)cc(-c3cncc(F)c3)nc12 [I-168] | > 1500
16 | Cc1c(-c2cncc(F)c2)nc2c(C)cnn2c1NCCc1c[nH]c2ccccc12 [I-169, 5-(5-Fluoro-3-pyridyl)-N-[2-(1H-indol-3-yl)ethyl]-3,6-dimethyl-pyrazolo[1,5-a]pyrimidin-7-amine] | 500 to 1000
17 | Cc1cnn2c(NCC(C)(C)c3c[nH]c4ccccc34)cc(-c3cncc(F)c3)nc12 [I-170] | > 1500
18 | Cc1cnn2c(NCC(C)c3c[nH]c4ccccc34)cc(-c3cncc(F)c3)nc12 (stereo not drawn) [I-171, 5-(5-Fluoro-3-pyridyl)-N-[2-(1H-indol-3-yl)propyl]-3-methyl-pyrazolo[1,5-a]pyrimidin-7-amine] | 1000 to 1500
19 | Cc1cnn2c(NCCc3c[nH]c4c(O)cccc34)cc(-c3cncc(F)c3)nc12 [I-172, 3-[2-[[5-(5-Fluoro-3-pyridyl)-3-methyl-pyrazolo[1,5-a]pyrimidin-7-yl]amino]ethyl]-1H-indol-7-ol] | 1000 to 1500
20 | Cc1cnn2c(NCCc3cn[nH]c3)cc(-c3cncc(F)c3)nc12 [I-173] | > 1500
21 | Cc1cnn2c(N[C@H](Cc3c[nH]c4ccccc34)CN(C)C)cc(-c3cncc(F)c3)nc12 [I-174] | > 1500
22 | CN(C)c1cnn2c(N[C@@H]3CCc4[nH]c5ccccc5c4C3)cc(-c3cncc(F)c3)nc12 [I-175, 5-(5-Fluoro-3-pyridyl)-N3,N3-dimethyl-N7-[(3R)-2,3,4,9-tetrahydro-1H-carbazol-3-yl]pyrazolo[1,5-a]pyrimidine-3,7-diamine] | > 1500
23 | Cc1cnn2c(NC(Cc3c[nH]c4ccccc34)CN(C)C)cc(-c3cncc(F)c3)nc12 (stereo not drawn) [I-176] | > 1500
24 | Cc1cnn2c(NC(CO)Cc3c[nH]c4ccccc34)cc(-c3cncc(F)c3)nc12 (stereo not drawn) [I-178] | > 1500

Row | SMILES | IC50 [nM]
25 | COc1cccc2c(CCNc3cc(-c4cncc(F)c4)nc4c(C)cnn34)c[nH]c12 [I-179, 5-(5-Fluoro-3-pyridyl)-N-[2-(7-methoxy-1H-indol-3-yl)ethyl]-3-methyl-pyrazolo[1,5-a]pyrimidin-7-amine] | < 500
26 | Cc1cnn2c(NCCc3cc[nH]n3)cc(-c3cncc(F)c3)nc12 [I-180, 5-(5-Fluoro-3-pyridyl)-3-methyl-N-[2-(1H-pyrazol-3-yl)ethyl]pyrazolo[1,5-a]pyrimidin-7-amine] | 500 to 1000
27 | CC(C)c1cnn2c(NC3CC3c3ccc(O)cc3)cc(-c3cncc(F)c3)nc12 (stereo not drawn) [I-181] | > 1500
28 | CNC(=O)C(Cc1c[nH]c2ccccc12)Nc1cc(-c2cncc(F)c2)nc2c(C)cnn12 (stereo not drawn) [I-182] | > 1500
29 | O=C(O)c1cnn2c(NCCc3c[nH]c4ccccc34)cc(-c3cncc(F)c3)nc12 [I-183] | > 1500
30 | Cc1cnn2c(OCCc3c[nH]c4ccccc34)cc(-c3cncc(F)c3)nc12 [I-184] | > 1500
31 | Cc1cnn2c(N[C@@H](CO)Cc3c[nH]c4ccccc34)cc(-c3cncc(F)c3)nc12 [I-185] | > 1500
32 | Cc1cnn2c(NCCc3c[nH]c4cccnc34)nc(-c3cncc(F)c3)nc12 [I-186, 2-(5-Fluoro-3-pyridyl)-8-methyl-N-[2-(1H-pyrrolo[3,2-b]pyridin-3-yl)ethyl]pyrazolo[1,5-a][1,3,5]triazin-4-amine] | 500 to 1000
33 | Cc1cnn2c(N[C@H](Cc3c[nH]c4ccccc34)C(=O)N(C)C)cc(-c3cncc(F)c3)nc12 [I-187a] | > 1500
34 | Cc1cnn2c(N[C@@H](Cc3c[nH]c4ccccc34)C(=O)N(C)C)cc(-c3cncc(F)c3)nc12 [I-187b, (2S)-2-[[5-(5-Fluoro-3-pyridyl)-3-methyl-pyrazolo[1,5-a]pyrimidin-7-yl]amino]-3-(1H-indol-3-yl)-N,N-dimethyl-propanamide] | > 1500
35 | CNC(=O)[C@@H](Cc1c[nH]c2ccccc12)Nc1cc(-c2cncc(F)c2)nc2c(C)cnn12 [I-189] | > 1500
36 | Cc1cnn2c(N[C@H](Cc3c[nH]c4ccccc34)C(N)=O)cc(-c3cncc(F)c3)nc12 [I-190a] | > 1500
37 | Cc1cnn2c(NC(Cc3c[nH]c4ccccc34)C(N)=O)cc(-c3cncc(F)c3)nc12 (stereo not drawn) [I-190b] | > 1500
38 | Fc1cncc(-c2cc(NCCc3c[nH]c4cccnc34)n3ncc(Br)c3n2)c1 [I-192, 3-Bromo-5-(5-fluoro-3-pyridyl)-N-[2-(1H-pyrrolo[3,2-b]pyridin-3-yl)ethyl]pyrazolo[1,5-a]pyrimidin-7-amine] | 500 to 1000
39 | Cc1cnn2c(NCCc3ccnc(O)c3)cc(-c3cncc(F)c3)nc12 [I-193] | > 1500
40 | Cc1cnn2c(NCCc3ccc(O)nc3)cc(-c3cncc(F)c3)nc12 [I-194] | > 1500
41 | Cc1cnn2c(NCCc3ccc(NS(C)(=O)=O)cc3)cc(-c3cncc(F)c3)nc12 [I-195, N-[4-[2-[[5-(5-Fluoro-3-pyridyl)-3-methyl-pyrazolo[1,5-a]pyrimidin-7-yl]amino]ethyl]phenyl]methanesulfonamide] | > 1500
42 | OCc1cnn2c(NCCc3c[nH]c4ccccc34)cc(-c3cncc(F)c3)nc12 [I-197, [5-(5-Fluoro-3-pyridyl)-7-[2-(1H-indol-3-yl)ethylamino]pyrazolo[1,5-a]pyrimidin-3-yl]methanol] | < 500
43 | C[C@H](O)c1cnn2c(N[C@@H]3CCc4[nH]c5ccccc5c4C3)cc(-c3cncc(F)c3)nc12 [I-198b, (1S)-1-[5-(5-fluoro-3-pyridyl)-7-[[(3R)-2,3,4,9-tetrahydro-1H-carbazol-3-yl]amino]pyrazolo[1,5-a]pyrimidin-3-yl]ethanol] | 500 to 1000
44 | CN(C)c1cnn2c(N[C@@H]3Cc4ccc(O)cc4C3)cc(-c3cncc(F)c3)nc12 [I-204a, (2R)-2-[[3-(dimethylamino)-5-(5-fluoro-3-pyridyl)pyrazolo[1,5-a]pyrimidin-7-yl]amino]indan-5-ol] | < 500
45 | CC(=O)Nc1ccc(CCNc2cc(-c3cncc(F)c3)nc3c(C)cnn23)cc1 [I-206] | > 1500
46 | Cc1cnn2c(NCCc3c[nH]cn3)cc(-c3cncc(F)c3)nc12 [I-207] | > 1500
47 | Cc1cnn2c(NCCc3cccc(O)c3)cc(-c3cncc(F)c3)nc12 [I-210, 3-[2-[[5-(5-fluoro-3-pyridyl)-3-methyl-pyrazolo[1,5-a]pyrimidin-7-yl]amino]ethyl]phenol] | 1000 to 1500
48 | Cc1cnn2c(NCCc3ccc(N)cc3)cc(-c3cncc(F)c3)nc12 [I-211, N-[2-(4-Aminophenyl)ethyl]-5-(5-fluoro-3-pyridyl)-3-methyl-pyrazolo[1,5-a]pyrimidin-7-amine] | > 1500
